Several values for one entry are separate records, joined by “and”; a condition that tells them apart may be missing. Equal entries are not always repeated. No end group written: not given here.
Test system: HLA-A*0201 positive patients with NSCLC expressing TERT
Experiment: Vx-001-201 randomized double blind phase IIb clinical trial (OS, TTF, 12 months survival)
Format: in vivo, human
Excerpt: The Vx-001-201 study is a randomized, double blind multicenter study done in 70 centers in France, Germany, Spain, Italy, Greece, Poland, Romania and Czech Republic. Key eligibility criteria were a) non small cell lung cancer (NSCLC), b) stage IV or recurrent stage I-III, c) disease control after platinum based first line chemotherapy according to RECIST 1.1 criteria, d) HLA-A*0201 positivity, e) tumors expressing TElomerase Reverse Transcriptase (TERT), f) ECOG 0 or 1 g) absence of brain metastasis.
a) Principal endpoint: overall survival (OS) measured from randomization
b) Secondary endpoints: • Time to Treatment Failure (TTF) measured from randomization • OS at 12 months
Patients who fulfilled all inclusion criteria were randomized within 4 weeks after the end of first line chemotherapy.
The vaccination protocol consisted in six vaccinations at three weeks interval. The optimized Vx-001/TERT572Y was used in the first two vaccinations and the native Vx-001/TERT572 in the following four vaccinations. Patients who continued controlling their disease after the sixth vaccination received boost vaccination with the Vx-001/TERT572 every three months. Vaccination was stopped at disease progression (FIG. 1).
The primary and secondary endpoints were analysed in the Full Analysis Set composed of all patients who fulfilled the […] five main criteria a) NSCLC, b) stage IV or recurrent stage I-III, and c) disease control after first line chemotherapy, d) HLA-A*0201 positivity and e) TERT expressing tumors.
We used the Kaplan-Meier method to estimate OS and TTF in each arm and a Cox proportional hazards regression model to estimate Hazard Ratio (HR) relating OS and TTF to the treatment effect.

[1] = FAS patients, all, Vx-001 vs placebo
[2] = FAS, 1st line chemotherapy CARBO (n = 119), Vx-001 arm
[3] = FAS, 1st line chemotherapy CDDP (n = 69), Vx-001 arm
[4] = FAS, Current smoker (n = 50), including light-smoker (≤25 years) (n = 5), Vx-001 arm
[5] = FAS, Female (n = 59), Vx-001 arm
[6] = FAS, Male (n = 131), Vx-001 arm
[7] = FAS, NS + Former smokers (<30 years)(n = 61), Vx-001 arm
[8] = FAS, NS + Former smokers (≤20 years)(n = 47), Vx-001 arm
[9] = FAS, Never smokers (NS) (n = 25), Vx-001 arm
[10] = FAS, age <65 years (n = 92), Vx-001 arm
[11] = FAS, age >65 years (n = 98), Vx-001 arm
[12] = FAS, response to chemotherapy OR (n = 87), Vx-001 arm
[13] = FAS, response to chemotherapy SD (n = 103), Vx-001 arm
[14] = FAS, sub-group NSQ (n = 118), Vx-001 arm
[15] = FAS, sub-group SQ (n = 72), Vx-001 arm
[16] = NS + Former smokers (≤25 years), all (n = 55), Vx-001 arm
[17] = never-smokers and light-smokers (≤25 years, stopped or not), <65 y (n = 28), Vx-001 arm
[18] = never-smokers and light-smokers (≤25 years, stopped or not), >65 y (n = 32), Vx-001 arm
[19] = never-smokers and light-smokers (≤25 years, stopped or not), All (n = 60), Vx-001 arm
[20] = never-smokers and light-smokers (≤25 years, stopped or not), ECOG 0 (n = 28), Vx-001 arm
[21] = never-smokers and light-smokers (≤25 years, stopped or not), ECOG 1 (n = 32), Vx-001 arm
[22] = never-smokers and light-smokers (≤25 years, stopped or not), Female (n = 25), Vx-001 arm
[23] = never-smokers and light-smokers (≤25 years, stopped or not), Male (n = 35), Vx-001 arm
[24] = never-smokers and light-smokers (≤25 years, stopped or not), NSQ (n = 46), Vx-001 arm

## Vx-001: vaccine composed of two nine-amino-acid peptides, TERT572 (SEQ ID No: 1) and TERT572Y (SEQ ID No: 2), administered separately with adjuvant Montanide ISA51 VG (chain 1 RLFFYRKSV; chain 2 YLFFYRKSV; not fully specified)
FAS patients, all, Vx-001 arm
  12 months survival: 58%
  OS (median): 14.3 months
  TTF (median): 3.6 months
[1]
  HR (OS): 0.97
  HR (TTF): 0.88
[2]
  12 months OS (%): 58.2%
  Median survival (months): 14.3 months
FAS, 1st line chemotherapy CARBO (n = 119), Vx-001 vs placebo
  HR (OS): 1.06
[3]
  12 months OS (%): 59%
  Median survival (months): 15 months
FAS, 1st line chemotherapy CDDP (n = 69), Vx-001 vs placebo
  HR (OS): 0.81
[4]
  12 months OS (%): 37.5%
  Median survival (months): 9 months
FAS, Current smoker (n = 50), including light-smoker (≤25 years) (n = 5), Vx-001 vs placebo
  HR (OS): 1.39
[5]
  12 months OS (%): 53.3%
  Median survival (months): 13.2 months
FAS, Female (n = 59), Vx-001 vs placebo
  HR (OS): 1.52
[6]
  12 months OS (%): 61%
  Median survival (months): 15 months
FAS, Male (n = 131), Vx-001 vs placebo
  HR (OS): 0.81
[7]
  12 months OS (%): 69%
  Median survival (months): 16.2 months
FAS, NS + Former smokers (<30 years)(n = 61), Vx-001 vs placebo
  HR (OS): 0.67
[8]
  12 months OS (%): 72.7%
  Median survival (months): 15.3 months
FAS, NS + Former smokers (≤20 years)(n = 47), Vx-001 vs placebo
  HR (OS): 0.67
[9]
  12 months OS (%): 70%
  Median survival (months): 14.1 months
FAS, Never smokers (NS) (n = 25), Vx-001 vs placebo
  HR (OS): 0.76
[10]
  12 months OS (%): 57.7%
  Median survival (months): 13.4 months
FAS, age <65 years (n = 92), Vx-001 vs placebo
  HR (OS): 1.2
[11]
  12 months OS (%): 59%
  Median survival (months): 15 months
FAS, age >65 years (n = 98), Vx-001 vs placebo
  HR (OS): 0.78
[12]
  12 months OS (%): 69%
  Median survival (months): 15.3 months
FAS, response to chemotherapy OR (n = 87), Vx-001 vs placebo
  HR (OS): 0.89
[13]
  12 months OS (%): 52%
  Median survival (months): 14.3 months
FAS, response to chemotherapy SD (n = 103), Vx-001 vs placebo
  HR (OS): 0.99
[14]
  12 months OS (%): 55%
  Median survival (months): 13.4 months
FAS, sub-group NSQ (n = 118), Vx-001 vs placebo
  HR (OS): 0.88
[15]
  12 months OS (%): 64%
  Median survival (months): 14.3 months
FAS, sub-group SQ (n = 72), Vx-001 vs placebo
  HR (OS): 1.13
[16]
  12 months OS (%): 73% and 73.1%
  Median survival (months): 16.2 months
[17]
  12 months OS: 76.9%
  OS (months): 20.2 months
never-smokers and light-smokers (≤25 years, stopped or not), <65 y (n = 28), Vx-001 vs placebo
  HR (OS): 0.50
[18]
  12 months OS: 64.3%
  OS (months): 15.3 months
never-smokers and light-smokers (≤25 years, stopped or not), >65 y (n = 32), Vx-001 vs placebo
  HR (OS): 0.62
[19]
  12 months OS: 70.4%
  OS (months): 20.2 months
never-smokers and light-smokers (≤25 years, stopped or not), All (n = 60), Vx-001 vs placebo
  HR (OS): 0.55
[20]
  12 months OS: 66.7%
  OS (months): 24.7 months
never-smokers and light-smokers (≤25 years, stopped or not), ECOG 0 (n = 28), Vx-001 vs placebo
  HR (OS): 0.52
[21]
  12 months OS: 73.3%
  OS (months): 15.3 months
never-smokers and light-smokers (≤25 years, stopped or not), ECOG 1 (n = 32), Vx-001 vs placebo
  HR (OS): 0.49
[22]
  12 months OS: 61.5%
  OS (months): 15.3 months
never-smokers and light-smokers (≤25 years, stopped or not), Female (n = 25), Vx-001 vs placebo
  HR (OS): 0.95
[23]
  12 months OS: 78.6%
  OS (months): 24.7 months
never-smokers and light-smokers (≤25 years, stopped or not), Male (n = 35), Vx-001 vs placebo
  HR (OS): 0.34
[24]
  12 months OS: 70.0%
  OS (months): 20.2 months
never-smokers and light-smokers (≤25 years, stopped or not), NSQ (n = 46), Vx-001 vs placebo
  HR (OS): 0.50
never-smokers and light-smokers (≤25 years, stopped or not), SQ (n = 14), Vx-001 arm
  12 months OS: 71.4%

Reference: patent US20200079819A1, “Use of a Vaccine Targeting a Cryptic Tert Epitope, for Treating Lung Cancer in a HLA-A*0201-Positive Never-Smoker or Light-Former Smoker Patient” (Vaxon Biotech, priority 2017, published 2020)
